The test system of one experiment is insulin secretion. The experiment is described as follows: in vivo inhibition of insulin secretion upon stimulation with L-alanine. Also on record: species or system mongrel dogs. To be noted: for effect on the increase in serum insulin concentration produced by infusion of L-alanine / effect on basal serum insulin concentration: dogs, intravenous infusion; for effect on the increase in serum insulin concentration produced by infusion of L-alanine: D-Phe11 0.211, L-Cha11 0.235, L-Leu11 0.195 μg/kg/min., L-alanine 1 mmol/kg; for effect on basal serum insulin concentration: L-Cha11 0.235, L-Leu11 0.195 μg/kg/min., somatostatin about 0.20-0.30 μg/kg./minute. As for the experimental part: (§1) The tetradecapeptides were tested for their in vivo activity in inhibiting glucagon and insulin secretion upon stimulation with L-alanine. Normal mongrel dogs of either sex were fasted overnight. Control blood samples were obtained, and then an intravenous infusion of saline, somatostatin, or test compound was started. After 30 minutes, L-alanine additionally was administered intravenously for a period of 15 minutes. The infusion of saline, somatostatin, or test compound was continued for 15 minutes after completion of the alanine infusion. The total dose of somatostatin or test compound which was infused is 200-500 μg/dog (about 0.20-0.30 μg/kg./minute), and the total dose of L-alanine infused was 1 mmol/kg. The infusion of L-alanine produced an abrupt increase in the serum concentration of glucagon and insulin. This returned to control concentration when the alanine infusion was discontinued.

The subject of experiment [1] is release of growth hormone. The experiment is described as follows: release of growth hormone in pentobarbital-stimulated rats. It counts as in vivo, Spraque-Dawley rats. The note with it: 50 μg./rat subcutaneously, sodium pentobarbital stimulated, somatostatin comparator run in each set. As for the experimental part:
D-Phe^11 -somatostatin, L-Cha^11 -somatostatin, and L-Leu^11 -somatostatin also were tested for their activity with respect to the release of growth hormone. The procedure which was employed is carried out using mature male Spraque-Dawley rats (Laboratory Supply Company, Indianapolis, Indiana). The test is a modification of the method of P. Brazeau, W. Vale, and R. Guilleman, Endocrinology, 94 184 (1974). In each assay, a set comprising three groups of eight rats each was employed. First, sodium pentobarbital was administered to all of the rats of the particular set to stimulate growth hormone secretion. In each set, one group served as control group and received only saline. A second group received somatostatin at 50 μg./rat, subcutaneously. The third group received test compound at 50 μg./rat, subcutaneously. The degree of inhibition of serum growth hormone concentration then was determined with respect to the control group, and the relative activities of test compound and somatostatin itself were compared.

For experiment [2], the system named is glucagon secretion. The experiment can be described thus: in vivo inhibition of glucagon secretion upon stimulation with L-alanine. Details: species or system mongrel dogs. To be noted: dogs, intravenous infusion; for effect on the increase in serum glucagon concentration produced by infusion of L-alanine: D-Phe11 0.211, L-Cha11 0.235, L-Leu11 0.195 μg/kg/min., L-alanine 1 mmol/kg; for effect on basal serum glucagon concentration: L-Cha11 0.235, L-Leu11 0.195 μg/kg/min. As for the experimental part:
as §1

The next experiment concerns gastric HCl secretion. The experiment can be described thus: in vivo inhibition of gastric acid secretion in dogs with chronic fistula and Heidenhain pouch. To be noted: for effect equivalent to that dose of somatostatin: extrapolated against the dose-response curve of somatostatin, test compound 3 μg/kg-hr.; for activity relative to that of somatostatin: gastric acid secretion in dogs, relative potency expressed as percent activity. As for the experimental part:
D-Phe^11 -somatostatin and L-Cha^11 -somatostatin also were tested in dogs for their in vivo inhibition of gastric acid secretion. In six dogs with chronic fistula and Heidenhain pouch, gastric HCl secretion was induced by infusion of the C-terminal tetrapeptide of gastrin at 0.5 μg/kg-hr. One dog served as control, receiving only the tetrapeptide. Another dog received the tetrapeptide and somatostatin while the test compound was administered to the remaining dogs in place of somatostatin. After one hour of steady state secretion of HCl, somatostatin or the test compound was infused at 3 μg/kg-hr. for one hour. Collection of gastric acid samples was continued for an additional 1.5 hours at 15 minute intervals. The samples were titrated to pH 7 with an automatic titrator. The maximal inhibitory effect of the test compounds was extrapolated against the dose-response curve of somatostatin, and the relative potency of the analogs to that of somatostatin is expressed as percent activity. […] This effect is equivalent to that of 0.086 μg/kg-hr. of somatostatin. Its activity relative to that of somatostatin thus is 2.87%. […] This effect is equivalent to that of 0.0825 μg/kg-hr. of somatostatin. Its activity relative to that of somatostatin therefore is 2.7%.

Experiment [3] has as its system glucagon secretion. The experiment can be described thus: in vivo inhibition of glucagon secretion upon stimulation with insulin. Details: species or system mongrel dogs. To be noted: dogs, intravenous infusion for two hours; D-Phe11 0.128, L-Cha11 0.130, L-Leu11 0.129 μg/kg/min.; insulin 0.3 units/kg. As for the experimental part:
The tetradecapeptides also were evaluated for in vivo activity in inhibiting glucagon secretion upon stimulation with insulin. Normal mongrel dogs of either sex were fasted overnight. After control blood samples had been obtained, an intravenous infusion of saline, somatostatin, or the test compound was commenced. After 15 minutes, insulin, 0.3 units/kg., was injected intravenously. The infusion of saline, somatostatin, or the test compound was continued for two hours, and blood samples were obtained at various intervals throughout the test. The total dose of the somatostatin or test compound ranged from 120-260 μg./dog (0.07-0.13 μg/kg/min.). Administration of insulin produced a reduction in the blood glucose concentration and an increase in serum glucagon concentration.

Positions of bridges follow the written chain, without caps; N, C: chain ends. Non-standard residues stand in square brackets, D forms with d. Residues, ends and D or L forms follow the SMILES beside them. Cha = N[C@@H](CC1CCCCC1)C(=O)O

We go through 3 molecules from patent US4061607A, “Somatostatin analogs and intermediates thereto” (Eli Lilly and Company, priority 1976, dated 1977).

As for `C[C@H](N)C(=O)NCC(=O)N[C@H]1CSSC[C@@H](C(=O)O)NC(=O)[C@H](CO)NC(=O)[C@H]([C@@H](C)O)NC(=O)[C@@H](Cc2ccccc2)NC(=O)[C@H]([C@@H](C)O)NC(=O)[C@H](CCCCN)NC(=O)[C@H](Cc2c[nH]c3ccccc23)NC(=O)[C@H](Cc2ccccc2)NC(=O)[C@H](Cc2ccccc2)NC(=O)[C@H](CC(N)=O)NC(=O)[C@H](CCCCN)NC1=O` [D-Phe^11 -somatostatin], the “effect on the increase in serum insulin concentration produced by infusion of L-alanine” value with insulin secretion is “did not affect the increase in serum glucagon concentration and serum insulin concentration”. For the same molecule, the “inhibition of the increase in serum growth hormone concentration over control” value (“inhibition of the increase” below) in experiment [1] is 70%. Also, the “effect on the increase in serum glucagon concentration produced by infusion of L-alanine” value in the experiment on glucagon secretion [2] is on record as “did not affect the increase in serum glucagon concentration”. In addition, in the experiment with gastric HCl secretion, the “effect equivalent to that dose of somatostatin” value is listed as 0.086 μg/kg-hr and the “activity relative to that of somatostatin” value was found to be 2.87%. Moreover, the “effect on the increase in serum glucagon concentration produced by insulin administration” value in the experiment on glucagon secretion [3] was “none of these compounds inhibited the increase in serum glucagon concentration”.
`C[C@H](N)C(=O)NCC(=O)N[C@H]1CSSC[C@@H](C(=O)O)NC(=O)[C@H](CO)NC(=O)[C@H]([C@@H](C)O)NC(=O)[C@H](CC2CCCCC2)NC(=O)[C@H]([C@@H](C)O)NC(=O)[C@H](CCCCN)NC(=O)[C@H](Cc2c[nH]c3ccccc23)NC(=O)[C@H](Cc2ccccc2)NC(=O)[C@H](Cc2ccccc2)NC(=O)[C@H](CC(N)=O)NC(=O)[C@H](CCCCN)NC1=O` [L-Cha^11 -somatostatin] (H-AGCKNFFWKT[Cha]TSC-OH; disulfide 3-14): in the experiment with insulin secretion, the “effect on the increase in serum insulin concentration produced by infusion of L-alanine” value is “did not inhibit the increase in serum concentration of either hormone”; the “effect on basal serum insulin concentration” value is “caused a decrease in the basal serum concentration of both insulin and glucagon”. Further, in experiment [1], the “inhibition of the increase” value is 33%. In addition, in the experiment with glucagon secretion [2], the “effect on the increase in serum glucagon concentration produced by infusion of L-alanine” value is “did not inhibit the increase in serum concentration of either hormone”; the “effect on basal serum glucagon concentration” value is “caused a decrease in the basal serum concentration of both insulin and glucagon”. Moreover, in the experiment with gastric HCl secretion, the “effect equivalent to that dose of somatostatin” value was 0.0825 μg/kg-hr and the “activity relative to that of somatostatin” value is listed as 2.7%. Besides, in the experiment with glucagon secretion [3], the “effect on the increase in serum glucagon concentration produced by insulin administration” value was “none of these compounds inhibited the increase in serum glucagon concentration”.
With `CC(C)C[C@@H]1NC(=O)[C@H]([C@@H](C)O)NC(=O)[C@H](CCCCN)NC(=O)[C@H](Cc2c[nH]c3ccccc23)NC(=O)[C@H](Cc2ccccc2)NC(=O)[C@H](Cc2ccccc2)NC(=O)[C@H](CC(N)=O)NC(=O)[C@H](CCCCN)NC(=O)[C@@H](NC(=O)CNC(=O)[C@H](C)N)CSSC[C@@H](C(=O)O)NC(=O)[C@H](CO)NC(=O)[C@H]([C@@H](C)O)NC1=O` [L-Leu^11 -somatostatin] (H-AGCKNFFWKTLTSC-OH; disulfide 3-14), in the experiment on insulin secretion, the “effect on the increase in serum insulin concentration produced by infusion of L-alanine” value is “caused only a partial inhibition of the increase in insulin secretion” and the “effect on basal serum insulin concentration” value was “had no affect on the basal serum concentration of either insulin or glucagon”. Moreover, the “inhibitory effect upon the pancreatic secretion of insulin” value with insulin secretion (general statement) is recorded as “exhibits an inhibitory effect upon the pancreatic secretion of insulin”. The “inhibition of the increase” value in experiment [1] was 22%. In the experiment with glucagon secretion [2], the “effect on the increase in serum glucagon concentration produced by infusion of L-alanine” value was “had no effect on the increase in glucagon concentration produced by L-alanine” and the “effect on basal serum glucagon concentration” value is “had no affect on the basal serum concentration of either insulin or glucagon”. Besides, in the experiment on glucagon secretion [3], the “effect on the increase in serum glucagon concentration produced by insulin administration” value is “none of these compounds inhibited the increase in serum glucagon concentration”.
